# Experiments:
# [1] = system: tibial joint cartilage explants; assay: Rabbit cartilage explants: protection against IL-1β-induced cartilage degradation (GAG release); details: for %Diff. vs baseline: GAG release, protection positive
# Procedure: The explants (2 x 2 mm) have been transferred to plates with wells and equilibrated for 48 hours at 37°C with high glucose DMEM plus 10% FCS and 50 µg/ml gentamycin. Explants have then been stimulated for 48 hours with 1 ng/ml IL-1β in aphenolic DMEM, 1 g/l glucose, 50 µg/ml gentamycin and 1% BSA. IL-1β elicits strong activation of the enzymes which depolymerise the proteoglycan aggregates of the cartilage matrix, resulting in its degradation, with the release of the breakdown products, mainly represented by the various glycosaminoglycans (GAG) making up the proteoglycan aggregates, into the culture liquid. […] In order to assess the effects of the test products on IL-1β-induced cartilage degradation, they have been added to the cartilage explants 20 minutes prior to stimulation with IL-1β. Cartilage degradation has been assessed by expressing the GAG released into the culture liquid as a percentage of the total GAG measured following complete digestion of the cartilage explants using papain.
# [2] = system: Mycobacterium tuberculosis; details: cited from earlier work
# [3] = system: methicillin and penicillin-resistant strains of Staphylococcus aureus; details: cited from earlier work
# [4] = system: zymosan-induced rat paw oedema; assay: Rat: anti-inflammatory activity on zymosan-induced paw oedema; format: in vivo; details: for % Diff. vs. control / Diff. vs. control: oedema; for % Diff. vs. control / Diff. vs. control / Oedema: oral; for Oedema: area under curve 0-24 h
# Procedure: The anti-inflammatory activities of the test products have been assessed according to Di Rosa et al. [1971] on rat paw oedema induced by a subplantar injection of 4 mg di zymosan in 0.1 ml of isotonic saline. Paw volume has been measured pletismographically at 0, 1, 2, 4, 6 and 24 hours following the injection of zymosan, and expressed in ml of difference, with respect to the baseline volume. The test products, suspended in 5 ml/kg of 5% methylcellulose, have been administered with a gastric probe 30 minutes prior to the injection of zymosan. Celecoxib, a known COX-2 inhibitor, widely used clinically, and administered orally at a dose of 10 mg/kg, has been used as a reference standard. In order to express the treatment effects numerically, the areas under the curves of paw volume increase from 0 to 24 hours have been measured, thus giving the measurement of paw oedema in mlx24 hours.
# [5] = system: zymosan-induced rat paw hyperalgesia; assay: Rat: analgesic activity (Randall and Selitto) on zymosan-induced paw hyperalgesia; format: in vivo; details: for % Diff. vs. control: analgesia; for % Diff. vs. control / Diff. vs. control / Analgesia: oral; for Diff. vs. control: difference of the Analgesia Δgx24h values; for Analgesia: area under analgesimetric curve 0-24 h
# Procedure: The analgesic activities of the test products have been evaluated using the technique of Randall and Selitto [1957] on hyperalgesia induced in rat paw by a subplantar injection of 4 mg di zymosan in 0.1 ml of isotonic saline. The mechanical nociceptive threshold has been determined using an analgesimeter (Ugo Basile, Varese, Italy) at 0, 1, 2, 4, 6 and 24 hours following the injection of zymosan. The analgesimeter measures the weight (in grams) applied to the paw which causes the reflex retraction of the paw itself. The nociceptive threshold has been expressed as the difference (in grams) in nociceptive threshold at time 0. The test products have been administered orally 30 minutes prior to the injection of zymosan. Celecoxib, a known COX-2 inhibitor, widely used clinically as an analgesic-anti-inflammatory, and administered orally at a dose of 10 mg/kg, has been used as a reference standard. In order to express the treatment effects numerically, the areas under the curves of the analgesimetric weight increase on the inflamed paw have been measured from 0 to 24 hours, thus giving the measurement in g x 24 hours of the area under the analgesimetric curve.
# TNFα = assay: Human blood: LPS stimulated production (expression) of TNFα; format: cell-based
# Procedure: (§1) 200 µl samples have been stimulated with 1 µg/ml of LPS for 24 hours at 37°C [Hartel et al. 2004], in the presence of the test products. The cytokines released into the plasma have been analysed using a multiple system for cytokines (Bio-Plex, Bio-Rad Laboratories, Milan, Italy) allowing the simultaneous determination of IL-1, TNFα and IL-10.
# PGE2 [6] = assay: Human blood: production of PGE2 stimulated by 100 µg/ml LPS, marker of monocyte COX-2 activity; format: cell-based
# Procedure: Human blood has been collected from health volunteers and made uncoagulable with 0.38% Na citrate. The test products have been added to 200 µl samples and then said samples stimulated with 100 µg/ml of LPS for 24 hours at 37°C. The PGE2 in the plasma, a marker of monocyte COX-2 activity [Panara et al. 1999], has been determined using a specific RIA method.
# IL-1 = assay: Human blood: LPS stimulated production (expression) of IL-1; format: cell-based
# Procedure: as §1
# PGE2 [7] = assay: Rabbit chondrocytes: IL-1β-stimulated production of PGE2 (a COX-2 marker); format: cell-based, New Zealand white rabbits; details: for %Diff. vs control: PGE2, control = IL-1β
# Procedure: Joint cartilage chondrocytes, obtained from New Zealand white rabbits, have been cultured using the technique described by Berenbaum [1994]. […] The test products have been added 20 minutes prior to stimulation. On completion of stimulation, the supernatant liquid has been collected and stored at -80°C until analysis. PGE2 in the culture medium has been measured using a radio-immunological method. The production of PGE2 in this model is a marker of the activity of the cyclooxygenases induced (COX-2) in cartilage from the proinflammatory stimulus represented by IL-1β.
# TXB2 = assay: Human blood: coagulation-induced thromboxane (TXB2) production, marker of platelet COX-1 activity; format: cell-based; details: for %Diff. vs control: TXB2
# Procedure: The test products have been added to samples of human blood, collected from healthy volunteers, and then said samples allowed to coagulate by leaving to stand for 1 hour at 37°C. The thromboxane (TXB2) in the serum, a marker of platelet COX-1 activity (Panara et al. 1999], has been determined using a specific RIA method.
# IL-10 = assay: Human blood: LPS stimulated production (expression) of IL-10; format: cell-based
# Procedure: as §1, with “Venous blood has been collected from healthy volunteers and treated with 0.38% Na citrate in order to prevent coagulation. 200 µl” for “200 µl”
# [8] = 10 mg/kg (Man, ASS as mangostin; ASS 10 = Man 10 + CGS 133)
# [9] = 30 µM (Man, ASS as mangostin; ASS 30 = Man 30 + CGS 300)
# [10] = 10 µM (Man, ASS as mangostin; ASS 10 = Man 10 + CGS 100)
# [11] = oral doses of 40, 133 and 400 mg/kg
# [12] = 1 µM (Man, ASS as mangostin; ASS 1 = Man 1 + CGS 10)
structure (smiles),measurement,setting,value
"C[C@@H]1C[C@@H]([C@H](O)CC2CC(=O)NC(=O)C2)C(=O)[C@@H](C)C1 [CHX, Cycloheximide]",%GAG released,[1]; CHX 2.5 µg/ml,12%
same,%Diff. vs baseline,[1]; CHX 2.5 µg/ml,82.6%
COc1c(O)cc2oc3cc(O)c(CC=C(C)C)c(O)c3c(=O)c2c1CC=C(C)C [α-mangostin],MIC,[2],6.25 µg/mL
same,MIC,[3],1.6 µg/mL
COc1cc2oc3cc(O)c(OC)c(CC=C(C)C)c3c(=O)c2c(O)c1CC=C(C)C [β-mangostin],MIC,[2],6.25 µg/mL
same,MIC,[3],1.6 µg/mL
"Cc1ccc(-c2cc(C(F)(F)F)nn2-c2ccc(S(N)(=O)=O)cc2)cc1 [CLX, Celecoxib]",% Diff. vs. control,[4]; [8],-30%
same,Diff. vs. control,[4]; [8],-4.7 mlx24 hours
same,Oedema,[4]; [8],11.8 Δmlx24h
same,% Diff. vs. control,[5]; [8],-46%
same,Diff. vs. control,[5]; [8],-497
same,Analgesia,[5]; [8],574 Δgx24h
"N[C@H]1C(O)O[C@H](CO)[C@@H](O)[C@@H]1O.N[C@H]1C(O)O[C@H](CO)[C@@H](O)[C@@H]1O.O=S(=O)(O)O.[Cl-].[Cl-].[Na+].[Na+] (stereo partly shown) [CGS, Crystalline Glucosamine Sulphate]",TNFα,TNFα; [9],14.70 ng/mL
same,TNFα,TNFα; 100 µM,13.80 ng/mL
same,TNFα,TNFα; 300 µM,12.70 ng/mL
same,%Diff. vs control,"TNFα; TNFα, 30 µM (Man, ASS as mangostin; ASS 30 = Man 30 + CGS 300)",-7.9%
same,%Diff. vs control,"TNFα; TNFα, 100 µM",-13.5%
same,%Diff. vs control,"TNFα; TNFα, 300 µM",-20.4%
same,IC50,"TNFα; TNFα, Man/Eman and ASS as mangostin concentration",> 300 µM
same,inhibitory activity,"TNFα; TNFα, even at concentrations of 300 µM",weakly inhibitory
same,PGE2,PGE2 [6]; [10],22.7 ng/mL
same,PGE2,PGE2 [6]; 30 µM (ASS as mangostin; ASS 30 = Man 30 + CGS 300),24.3 ng/mL
same,PGE2,PGE2 [6]; 100 µM,23.5 ng/mL
same,%Diff. vs control,"PGE2 [6]; PGE2, 10 µM (Man, ASS as mangostin; ASS 10 = Man 10 + CGS 100)",-7.3%
same,%Diff. vs control,"PGE2 [6]; PGE2, 30 µM (ASS as mangostin; ASS 30 = Man 30 + CGS 300)",-0.8%
same,%Diff. vs control,"PGE2 [6]; PGE2, 100 µM",-4.1%
same,stimulatory or inhibitory activity,"PGE2 [6]; PGE2, concentrations of 10, 30 or 100 µM",no significant stimulatory or inhibitory activity
same,% Diff. vs. control,[4]; 40 mg/kg,-1%
same,Diff. vs. control,[4]; 40 mg/kg,-0.1 mlx24 hours
same,% Diff. vs. control,[4]; 133 mg/kg,-2%
same,Diff. vs. control,[4]; 133 mg/kg,-0.3 mlx24 hours
same,% Diff. vs. control,[4]; 400 mg/kg,-4%
same,Diff. vs. control,[4]; 400 mg/kg,-0.6 mlx24 hours
same,anti-inflammatory activity,[4]; [11],no significant anti-inflammatory activity
same,Oedema,[4]; 40 mg/kg,15.6 Δmlx24h
same,Oedema,[4]; 133 mg/kg,15.4 Δmlx24h
same,Oedema,[4]; 400 mg/kg,15.2 Δmlx24h
same,% Diff. vs. control,[5]; 40 mg/kg,1%
same,% Diff. vs. control,[5]; 133 mg/kg,-6%
same,% Diff. vs. control,[5]; 400 mg/kg,-4%
same,Diff. vs. control,[5]; 40 mg/kg,7
same,Diff. vs. control,[5]; 133 mg/kg,-59
same,Diff. vs. control,[5]; 400 mg/kg,-46
same,analgesic activity,[5]; [11],no significant analgesic activity
same,Analgesia,[5]; 40 mg/kg,1079 Δgx24h
same,Analgesia,[5]; 133 mg/kg,1012 Δgx24h
same,Analgesia,[5]; 400 mg/kg,1026 Δgx24h
same,IL-1,IL-1; [9],4.65 ng/mL
same,IL-1,IL-1; 100 µM,4.72 ng/mL
same,IL-1,IL-1; 300 µM,4.69 ng/mL
same,%Diff. vs control,"IL-1; IL-1, 30 µM (Man, ASS as mangostin; ASS 30 = Man 30 + CGS 300)",2.1%
same,%Diff. vs control,"IL-1; IL-1, 100 µM",3.6%
same,%Diff. vs control,"IL-1; IL-1, 300 µM",3.1%
same,inhibitory activity,"IL-1; IL-1, up to a concentration of 300 µM",no appreciable inhibitory activity
same,protection against IL-1β-induced cartilage degradation,[1]; 1 µM,41%
same,%GAG released,[1]; [12],41%
same,%GAG released,[1]; 3 µM,25%
same,%GAG released,[1]; 10 µM,16%
same,protection against IL-1β-induced cartilage degradation,[1]; 3 mM CGS,64%
same,protection against IL-1β-induced cartilage degradation,[1]; 10 mM CGS,77%
same,%Diff. vs baseline,[1]; [12],40.6%
same,%Diff. vs baseline,[1]; 3 µM,63.8%
same,%Diff. vs baseline,[1]; 10 µM,76.8%
same,EC50,"[1]; read-out: PC50, 50% protective concentration, ASS with reference to CGS",2.3 µM
same,PGE2,PGE2 [7]; [12],200 ng/mL
same,PGE2,PGE2 [7]; 3 µM (Man as mangostin),180 ng/mL
same,PGE2,PGE2 [7]; 10 µM,210 ng/mL
same,%Diff. vs control,PGE2 [7]; [12],6.4%
same,%Diff. vs control,PGE2 [7]; 3 µM (Man as mangostin),-4.3%
same,%Diff. vs control,PGE2 [7]; 10 µM,-11.7%
same,inhibitory or stimulatory activity,"PGE2 [7]; PGE2, concentrations of 1, 3 or 10 µM",no significant inhibitory or stimulatory activity
same,TXB2,TXB2; [10],124 ng/mL
same,TXB2,TXB2; 30 µM,118 ng/mL
same,TXB2,TXB2; 100 µM,125 ng/mL
same,effect on the release of TXB2,"TXB2; Man 1, 3, 10, CGS 10, 30, 100 µM, Ass 1, 3, 10",no significant stimulatory or inhibitory activity
same,%Diff. vs control,TXB2; [10],3.3%
same,%Diff. vs control,TXB2; 30 µM,-1.7%
same,%Diff. vs control,TXB2; 100 µM,4.2%
same,IL-10,IL-10; [9],0.25 ng/mL
same,IL-10,IL-10; 100 µM,0.26 ng/mL
same,IL-10,IL-10; 300 µM,0.27 ng/mL
same,%Diff. vs control,"IL-10; IL-10 (increase positive), 30 µM (Man, ASS as mangostin; ASS 30 = Man 30 + CGS 300)",-3.5%
same,%Diff. vs control,"IL-10; IL-10, 100 µM",1.6%
same,%Diff. vs control,"IL-10; IL-10, 300 µM",6.3%
same,stimulatory or inhibitory activity,"IL-10; IL-10, concentrations tested 30, 100 and 300 µM",no significant stimulatory or inhibitory activity

# Source: patent publication EP1889615A2, “Formulations for oral administration with a health promoting effect on the osteoarticular and muscleskeleton apparatus” (ROTTAPHARM S.P.A., priority 2006, dated 2008)
